Assay results taken from US20140094465A1, “Compounds as S-Nitrosoglutathione Reductase Inhibitors” (N30 PHARMACEUTICALS, INC., priority 2011, published 2014).
pIC50: −log10 of the molar value.

Columns and labels:
[1] = molecular target: T1, S-nitrosoglutathione reductase (GSNOR) (Homo sapiens, UniProt P11766); experiment: GSNOR assay (inhibition of GSNOR activity, NADH absorbance at 340 nm); format: biochemical; conditions: GSNOR inhibitor activity, Tables 1-6; read-out: IC50 range
T1 construct: made in house; host or cells: E. coli
Procedure, shortened: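 Recombinant GSNOR purified from E. coli, tag removed. Final conditions: 100 mM NaPO4 pH 7.4, 0.240 mM GSNO, 0.300 mM NADH, 0.5 μg/mL enzyme, 1% DMSO; NADH loss followed as 340 nm absorbance change over 3 min at 25 °C. Compounds 100–0.003 μM, triplicate; IC50 by curve analysis.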

[2] = Mouse pharmacokinetic (PK) study; format: in vivo; conditions: male, BALB/c, plasma, po, 10 mg/kg, male BALB/c mice, 2 mg/kg IV, 10 mg/kg PO, read-out: oral bioavailability (% F)
Source text: The mouse was used to determine the pharmacokinetics of compounds of the invention. This species is widely used to assess the bioavailability of compounds by administering both oral (PO) and intravenous (IV) test articles. Efficacy of the compounds of the invention was compared by assessing plasma exposure in male BALB/c mice either via IV or PO administration at the times of peak activity.
Compounds of the invention were reconstituted in a phosphate buffered saline (PBS)/10% Solutol (HS 15) clear solution resulting in a concentration of 0.2 mg/mL and administered to mice (2 mg/kg) as a single IV dose. Animals were dosed via the lateral tail vein. Blood samples were collected at designated time points (0.083, 0.25, 0.5, 1, 2, 4, 8, 16, 24 hours) by cardiac puncture under isoflurane anesthesia (up to 1 mL blood per animal). The blood was collected into tubes containing Li-Heparin. The blood samples were kept on ice until centrifugation within approximately 30 minutes of collection. The plasma was transferred into labeled polypropylene tubes and frozen at −70° C. until analyzed by LC/MS/MS.
The compounds of the invention were reconstituted in 40% Propylene Glycol/40% Propylene Carbonate/20% of a 5% Sucrose clear solution resulting in a concentration of 2 mg/mL and administered to mice (10 mg/kg) as a single oral dose via gavage. Blood samples were collected at 0.25, 0.5, 1, 2, 4, 8, 12, 16, 20 and 24 hours post dose by cardiac puncture under isoflurane anesthesia. The blood was collected in tubes containing Li-Heparin. The blood samples were kept on ice until centrifugation within approximately 30 minutes of collection. The plasma was transferred into labeled polypropylene tubes and frozen at −70° C. until analyzed by LC/MS/MS.
Plasma samples at each timepoint were analyzed using a LC-MS/MS with a lower limit of quantification (LLOQ) of 1 ng/mL. Plasma was analyzed to determine the amount of the compound of the invention in each sample and regression curves generated for each compounds of the invention in the relevant matrixes.
WinNonlin analysis was used for calculating PK parameters for both the IV and PO administrations:
PK parameters for IV portion—AUClast; AUCINF; T1/2; Cl; Vss; Cmax; MRT
PK parameters for PO portion—AUClast; AUCINF; T1/2; Cmax; Cl, MRT.
In addition to the above PK parameters, bioavailability (% F) was calculated.

[3] = system: dextran sodium sulfate (DSS)-induced IBD; experiment: Acute prophylactic model of DSS-induced IBD; format: in vivo, mouse; conditions: for decrease of percent of mice with severe colon injury scores via histopathology / decrease of percent of mice with severe colon injury scores via endoscopy: prophylactic
Source text: Acute and chronic models of dextran sodium sulfate (DSS)-induced IBD in mice were used to explore efficacy of GSNORi against this disease. Acute and chronic DSS-induced IBD are widely used and well characterized models that induce pathological changes in the colon similar to those observed in the human disease. In these models and in human disease, epithelial cells within the crypts of the colon are disrupted, leading to dysfunction of the epithelial barrier and the ensuing tissue inflammation, edema, and ulceration. GSNORi therapy may benefit IBD by restoring s-nitrosoglutathione (GSNO) levels, and thus prevent or reverse the epithelial barrier dysfunction. Experimental IBD was induced by administration of DSS in the drinking water of male C57Bl/6 mice (N=8 to 10 mice per group) for 6 consecutive days. GSNORi was dosed orally at doses of 0.1 to 10 mg/kg/day for 10 days starting two days prior to and continuing two days post DSS exposure. […] Levels of circulating cytokines involved in inflammatory pathways were also assessed. The effect of GSNORi was compared to vehicle treated controls. […] Naïve mice (N=5) were also assessed as a normal tissue control.

T1 sequence (P11766 whole entry): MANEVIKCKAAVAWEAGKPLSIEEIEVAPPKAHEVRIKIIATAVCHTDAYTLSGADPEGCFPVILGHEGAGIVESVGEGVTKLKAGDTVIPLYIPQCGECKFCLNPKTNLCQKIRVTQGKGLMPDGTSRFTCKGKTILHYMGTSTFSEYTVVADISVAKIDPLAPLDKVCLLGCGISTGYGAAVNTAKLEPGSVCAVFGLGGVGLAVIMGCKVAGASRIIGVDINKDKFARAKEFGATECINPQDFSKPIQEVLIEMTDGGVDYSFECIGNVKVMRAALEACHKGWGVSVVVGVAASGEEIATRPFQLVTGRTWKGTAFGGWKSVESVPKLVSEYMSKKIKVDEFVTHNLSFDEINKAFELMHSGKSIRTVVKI

SMILES	pIC50 [1]	bioavailability [2] [%]	decrease of percent of mice with severe colon injury scores via histopathology ([3]; oral 10 mg/kg/day for 10 days)	decrease of percent of mice with severe colon injury scores via endoscopy ([3]; oral 10 mg/kg/day for 10 days)	decrease of percent of mice with severe colon injury scores via pathology ([3]; oral 0.1 mg/kg/day for 10 days)	decrease of percent of mice with severe colon injury scores via endoscopy ([3]; oral 0.1 mg/kg/day for 10 days)	decrease of percent of mice with severe colon injury scores via endoscopy ([3]; oral 1 mg/kg/day for 10 days)	decrease of percent of mice with severe colon injury scores via histopathology ([3]; oral 1 mg/kg/day for 10 days)
O=C(O)c1ccc(-c2ccc3cc(O)ccc3c2)c(F)c1 [III-2]	> 7.00	> 9	26 % of vehicle control					
O=c1c(-c2ccc(-c3nnn[nH]3)cc2)c(C(F)(F)F)oc2cc(O)ccc12 [IV-23]	> 7.00	> 9	17 % of vehicle control	75 % of vehicle control				
O=c1c2ccc(O)cc2oc(C(F)(F)F)c1[C@H]1CC[C@H](C(=O)O)CC1 [IV-25]	> 7.00	> 9			12 % of vehicle control	38 % of vehicle control	25 % of vehicle control	33 % of vehicle control
O=c1[nH]c(-c2ccc(-c3c(C(F)(F)F)oc4cc(O)ccc4c3=O)cc2)no1 [IV-31]	> 7.00	> 9						
O=C(O)c1ccc(-c2c(C(F)(F)F)oc3cc(O)ccc3c2=O)c(F)c1 [IV-38]	> 7.00	> 9	15 % of vehicle control	58 % of vehicle control				
